How the values were obtained:
[1] = test system: RSV A2; experiment: RSV lung titer in cotton rats after local (intranasal) administration; type: in vivo, cotton rat (Sigmoden hispidis); conditions: for RSV titer (log10/g lung) Mean / RSV titer (log10/g lung) in CR No. 1 / RSV titer (log10/g lung) in CR No. 2 / RSV titer (log10/g lung) in CR No. 3 / RSV titer (log10/g lung) in CR No. 4: non-ISS = SEQ ID NO:9
Procedure: Cotton rats, 50-100 g and 4-12 weeks old (Sigmoden hispidis) of either sex were used in these studies. All of the animals were descendants of two pair of cotton rats obtained in 1984 from the Small Animal Section of the Veterinary Research Branch, Division of Research Services, National Institutes of Health.
RSV strain A2 was purchased from the ATCC (ATCC VR26). Working stocks of this virus were prepared as described in detail by Wyde et al. (1995) Pediatr. Res. 38:543-550. ISS sequence tested for RSV experiments was 5′-[…]-3′ (SEQ ID NO:1) (phosphorothioate). Control, non-ISS sequences used were 5′-[…]-3′ (SEQ ID NO:9) (phosphorothioate) and 5′-[…]-3′ (SEQ ID NO:10) (phosphorothioate), as well as PBS.
RSV levels in virus pools and lung lavage fluids (L.F.) were determined using sterile 96-well, flat bottom tissue culture plates (Falcon 3072), serial 3-fold dilutions and 2% FCS-MEM as described in detail previously (Wyde et al., 1995). […] The amount of virus in virus pools was expressed as a median tissue culture infectious doses (TCID50/ml, log10). Titers of virus in L.F. were expressed as TCID50/g lung tissue (log10). The minimum detectable virus concentration in these assays was 1.3 log10 TCID50/ml (virus pools) or 1.6 log10 TCID50/g lung.
On day −3 (i.e., 3 days before infection with virus), 20 cotton rats (CRs) were selected and divided into five groups of four animals. The animals in Group 1 were lightly anesthetized and 50 μL of phosphate buffered saline (PBS) was administered intranasally (IN). The CRs in Group 2 were similarly administered 150 μg of ISS (5′-[…]-3′) (SEQ ID NO:1), while the animals in Group 3 were similarly administered 150 μg of control non-ISS sequence 5′-[…]-3′ (SEQ ID NO:9). Three days later, on Day 0, each of CRs in Group 4 were anesthetized and 150 μg of ISS was administered IN, and the animals in Group 5 were administered, in a like manner, 150 μg of control non-ISS sequence 5′-[…]-3′ (SEQ ID NO:9).
Thirty minutes later, all of the CRs were inoculated IN with 100 median tissue culture infectious doses (TCID50) of RSV A2. Four days later (Day 4), all of the animals were sacrificed and the lungs of each animal were removed, lavaged, and assessed for RSV levels.

[2] = test system: HBV; experiment: Chronic HBV model: serum HBV DNA and HBsAg in STC transgenic mice; type: in vivo, STC strain transgenic mice
Procedure: ISS activity was tested in an animal model of chronic hepatitis. An ISS-containing phosphorothioate oligonucleotide (5′-[…]-3′) (SEQ ID NO:1), was delivered to STC strain transgenic mice, followed by measurement of HBV DNA and HBsAg production.
STC line mice were developed at Stanford University by Patricia Marion. The majority of these mice secrete HBV of the Ayw genotype (Galibert et al. (1979) Nature 281:646) to titers of 10^6-8 viral genome equivalents per ml of serum. STC mice were derived from the FVB strain, and were constructed by microinjection of HBV genomic DNA.
Approximately one month old mice were bled and tested for serum levels of HBsAg, which is predictive of viral DNA titer. A pool of 40 STC mice with approximately equal levels of HBsAg were selected and randomly assigned to four treatment groups of 10 animals each. The groups were treated as follows: • 1. 100 μg of ISS injected subcutaneously, once per week for 3 weeks (days 0, 7, 14) • 2. 100 μg of ISS injected subcutaneously, one injection at day 14 • 3. 100 ng of murine 1L-12 injected intraperitoneally on days 12, 13, and 14. • 4. PBS injected subcutaneously (days 0, 7, 14)
Blood samples were taken at day 0, 7, 14, 15 (22 hr after last IL-12 injection), 18, 28 and 35. Serum prepared from the blood samples was tested for HBV DNA by quantitative PCR (testing performed under contract by Hepadnavirus Testing, Inc.), and HBsAg using a commercially available EIA kit for HBsAg from Abbott Laboratories. Animals were sacrificed at day 35 and livers were collected for histologic analysis.

[3] = test system: HSV-2; experiment: Viral titer after pre-treating HSV-2 virus with oligonucleotide, Vero cells; type: cell-based, African Green monkey (Vero cells)
Procedure: HSV-1 or HSV-2 virus was pre-treated with varying concentrations of ISS or non-ISS oligonucleotides for 10 minutes prior to adding the mixture to plated Vero cells. Oligonucleotides were used at 1 μg/ml or 10 μg/ml. Viral titers were calculated as a percent of control titer generated by cells not treated with the oligonucleotides. The data are expressed as percent of control titer.

[4] = test system: canine papillomavirus; experiment: Canine oral papilloma model, time to lesion regression; type: in vivo, Beagle puppies
Procedure: A model of canine oral papilloma was used to test the efficacy of ISS on papilloma. Beagle puppies were inoculated in the bucal mucosa with canine papillomavirus and developing papilloma lesions were monitored daily. Four groups of seven dogs each were treated with differing amount of ISS oligonucleotide (5′-[…]-3′ (SEQ ID NO:1), phosphorothioate backbone). One group received 50 μg ISS twice a week, another group received 500 μg ISS twice a week, the third group received 500 μg ISS one time only at the first signs of papilloma lesion development (injected within the papilloma lesion) and the fourth group (control group) received PBS twice a week. All dogs were monitored daily for the development of lesions and the time to regression.

[5] = 150 μg IN Day 0 (30 min before RSV), lungs Day 4
[6] = 150 μg IN Day −3, RSV Day 0, lungs Day 4

Q: Which “RSV titer (log10/g lung) Mean” value [1, 5] does the source give for “5′-TGACTGTGAACGTTCGAGATGA-3′ [SEQ ID NO: 1]” here?
A: The value was 3.9 log10/g lung.

Q: What about the “RSV titer (log10/g lung) in CR No. 1” value [1, 5] of the same substance?
A: The value was 4 log10/g lung.

Q: And the “RSV titer (log10/g lung) in CR No. 2” value [1, 5]?
A: The value was 4 log10/g lung.

Q: What about the “RSV titer (log10/g lung) in CR No. 3” value [1, 5] of the same substance?
A: Its value is 4.5 log10/g lung.

Q: And the “RSV titer (log10/g lung) in CR No. 4” value [1, 5]?
A: The value was 3 log10/g lung.

Q: What about the “RSV titer (log10/g lung) Mean” value [1, 6] of the same substance?
A: The value was 2.8 log10/g lung.

Q: What about the “RSV titer (log10/g lung) in CR No. 1” value [1, 6] of the same substance?
A: Its value is 3 log10/g lung.

Q: And the “RSV titer (log10/g lung) in CR No. 2” value [1, 6]?
A: Its value is 3 log10/g lung.

Q: What about the “RSV titer (log10/g lung) in CR No. 3” value [1, 6] of the same substance?
A: Its value is 2.5 log10/g lung.

Q: What about the “RSV titer (log10/g lung) in CR No. 4” value [1, 6] of the same substance?
A: The value was 2.5 log10/g lung.

Q: And the “Effect on RSV viral titer in infected tissue” value ([1]; IN administration 3 days before infection)?
A: Its value is “effective at reducing viral titers”.

Q: And the “Effect on RSV viral titer in infected tissue” value ([1]; first IN administration on the day of infection)?
A: Its value is “not effective”.

Q: What about the “Reduction of mean viral DNA titer” value ([2]; Group 2: single SC injection 100 μg at day 14, three days after injection) of the same substance?
A: Its value is 90 fold.

Q: And the “Serum HBsAg levels versus PBS controls” value ([2]; STC mice, 100 μg SC)?
A: The value was “trend towards decreased average HBsAg values”.

Q: And the “Effect on serum HBV DNA viral titer” value ([2]; STC mice, ISS 100 μg SC, murine IL-12 100 ng IP days 12, 13, 14)?
A: The value was “effective in reducing viral titer”.

Q: What about the “Viral titer, percent of control titer” value ([3]; HSV-2 virus pre-treated 10 minutes with 1 μg/ml) of the same substance?
A: Its value is 96% of control titer.

Q: What about the “Viral titer, percent of control titer” value ([3]; HSV-2 virus pre-treated 10 minutes with 10 μg/ml) of the same substance?
A: The value was 102% of control titer.

Q: What about the “Average rate of lesion regression” value ([4]; 500 μg one time at first signs of papilloma lesion) of the same substance?
A: Its value is “higher average rate of lesion regression than untreated dogs”.

Q: What about the “Average time for rapid regression” value ([4]; 500 μg one time at first signs of papilloma, injected within the lesion) of the same substance?
A: Its value is 25.1 days.

Q: What about the Regression time ([4]; other treatment groups: 50 μg or 500 μg twice a week) of the same substance?
A: Its Regression time is “did not show a marked difference in regression time”.
